Measurements as given in patent publication US20240407993A1, “PEPTIDE HAVING ANTI-AGING ACTIVITY, AND USE THEREOF” (CAREGEN CO., LTD., priority 2021, published 2024).

How the values were obtained:
hyaluronic acid = experiment: Hyaluronic acid secretion (HA ELISA) in keratinocytes; format: cell-based, human; settings: HaCaT cells, peptide 1, 10, 50 μM, 24 hours; FIG. 2
Protocol: First, HaCaT cells (human keratinocyte cell line) were seeded in a 48-well plate at a cell density of 1×10^5 cell/well, and then the cells were cultured in DMEM medium containing 10% fetal bovine serum (FBS) for 24 hours. The cultured cells were washed once with serum free DMEM medium, and the peptide of the present invention was mixed in 2 mL of the serum free DMEM medium at each of concentrations of 1, 10, and 50 μM, and dispensed into three wells by 500 μL per condition. A positive control (PC) was treated with 100 nM of EGF instead of the above peptide. The cells were cultured in a CO2 incubator at 37° C. for 24 hours.
The medium of the cultured HaCaT cells was centrifuged to settle a suspended matter, and a supernatant was transferred to an e-tube and used to perform HA ELISA (ECHELON biosciences, Cat No.: K-1200, USA).

MMP-1 = MMP-1 protein expression increased by UV irradiation, western blot in fibroblasts; format: cell-based, mouse; settings: NIH3T3 cells, 6 J/cm^2 UVA, peptide 1, 10, 50 μM, 24 hours after irradiation; FIG. 6A
Protocol: The expression of MMP-1 encoding proteins related to collagen degradation increases by ultraviolet irradiation. Therefore, it was confirmed whether the expression of the MMP-1 protein was inhibited again and the cell aging phenomenon was inhibited when treated with the peptide of the present invention.
First, NIH3T3 cells and HaCaT cells were seeded in a 6-well plate at a cell density of 5×10^5 cell/well, respectively, and then the cells were cultured in DMEM medium containing 10% fetal bovine serum (FBS) for 24 hours. The cultured cells were washed once with serum free DMEM medium, and the peptide of the present invention was mixed in 1 mL of the serum free DMEM medium at each of concentrations of 1, 10, and 50 μM, and dispensed into the cells. A positive control (PC) was treated with 2.5 mM of N-Acetylcysteine (NaC) instead of the above peptide.
The cells were cultured in a CO2 incubator at 37° C. for 1 hour. The medium of the cultured cells was transferred to a tube (e-tube), 1 ml of PBS was added, and then the NIH3T3 cells were irradiated with 6 J/cm^2 of UVA and the HaCaT cells were irradiated with 15 mJ/cm^2 of UVB using a UV irradiator (VILBER LOURMAT, Cat No.: 3102-BSU, France). After removing PBS, 900 μL of the medium transferred to the tube was added, and culture was performed in a CO2 incubator at 37° C. for 24 hours. […]

AQP3 = AQP3 mRNA level decreased by UV irradiation, RT-PCR in keratinocytes; format: cell-based, human; settings: HaCaT cells, 20 mJ/cm^2 UVB, peptide 1, 10, 50 μM, 4 hours after irradiation; FIGS. 7A, 7C
Protocol: The expression of genes related to aging is inhibited when irradiated with UV.
First, HaCaT cells were seeded in a 6-well plate at a cell density of 5×10^5 cell/well, and then the cells were cultured in DMEM medium containing 10% fetal bovine serum (FBS) for 24 hours. The cultured cells were washed once with serum free DMEM medium, and then the peptide of the present invention was mixed in 1 mL of the serum free DMEM medium at each of concentrations of 1, 10, and 50 μM, and dispensed into the cells. A positive control (PC) was treated with 2.5 mM of N-Acetylcysteine (NaC) instead of the above peptide.
The cells were cultured in a CO2 incubator at 37° C. for 1 hour. The medium of the cultured cells was transferred to a tube (e-tube), 1 ml of PBS was added, and irradiation was performed with 20 mJ/cm^2 of UVB using a UV irradiator (VILBER LOURMAT, Cat No.: 3102-BSU, France). After removing PBS, 900 μL of the medium transferred to the tube was added, and culture was performed in a CO2 incubator at 37° C. for 4 hours. The cultured cells were washed twice with PBS, and then RNA was extracted from the cells using easy blue (iNtRON, Cat. No.: 17061, Korea). The extracted RNA was subjected to RT reaction using a kit (enzynomics, Cat. No.: RT200, Korea). Thereafter, RT-PCR was performed using a PCR kit (enzynomics, Cat. No.: R581T, Korea). […]

## LCACCLHNCNECQ
Hyaluronic acid
  secretion of hyaluronic acid protein: gradually increased as the concentration of the peptide increased
MMP-1
  expression of MMP-1 increased by UV irradiation: inhibited
AQP3
  mRNA level of AQP3 decreased by UV irradiation: increased again
